This is an account of results in patent publication US9987276B2 (Celgene CAR LLC, priority 2008, dated 2018).

Like-named read-outs stand apart in the source and are kept apart here.

The target in test [1] is ITK (Homo sapiens (Human), UniProt Q08881). Put plainly: Omnia assay for potency assessment against active forms of ITK kinase. In kind it is biochemical. The conditions noted are these: [ITK]=10 nM, [ATP]=25, [Y6-Sox]=10 μM; read-out: ITK Inhibition. As for the experimental part: [ITK]=10 nM, [ATP]=25 [Y6-Sox]=10 μM (ATP KMapp=33 μM).
Test [2] addresses EGFR-WT (Homo sapiens (Human), UniProt P00533). Nature of the test: Omnia assay for potency assessment against EGFR (WT).
Test [3] concerns the target BTK (Homo sapiens (Human), UniProt Q06187). Put plainly: Omnia assay for potency assessment against BTK. In kind it is biochemical. The following applies: [BTK]=5 nM, Omnia assay; read-out: BTK Inhibition (IC50). Here is the method:
The modified BTK-optimized reagent conditions for the above protocol are:
[BTK]=5 nM, [ATP]=[…], [Y5-Sox]=[…] (ATP KMapp˜[…]).

[4] abbreviates: read-out: EGFR (wild type inhibition), EGFR wild type.

Chain of ITK (Q08881 whole entry): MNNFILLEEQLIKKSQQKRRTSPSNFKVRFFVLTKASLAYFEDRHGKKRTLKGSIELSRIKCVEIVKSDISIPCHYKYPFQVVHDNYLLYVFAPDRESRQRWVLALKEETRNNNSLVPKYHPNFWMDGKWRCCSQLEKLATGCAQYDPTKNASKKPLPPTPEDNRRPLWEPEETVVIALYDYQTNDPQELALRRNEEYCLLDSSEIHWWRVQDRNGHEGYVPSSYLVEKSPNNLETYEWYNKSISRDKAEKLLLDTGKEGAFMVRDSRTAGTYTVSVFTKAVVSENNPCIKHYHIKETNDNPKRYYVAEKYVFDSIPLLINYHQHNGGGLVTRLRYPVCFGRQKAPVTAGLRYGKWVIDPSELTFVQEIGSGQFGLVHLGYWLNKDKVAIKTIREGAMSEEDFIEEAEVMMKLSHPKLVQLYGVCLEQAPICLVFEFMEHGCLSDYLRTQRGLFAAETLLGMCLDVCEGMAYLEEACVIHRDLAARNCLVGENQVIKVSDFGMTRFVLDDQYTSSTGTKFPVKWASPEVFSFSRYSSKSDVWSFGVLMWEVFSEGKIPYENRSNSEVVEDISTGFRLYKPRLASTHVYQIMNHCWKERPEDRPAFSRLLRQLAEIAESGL
Chain of BTK (Q06187 whole entry): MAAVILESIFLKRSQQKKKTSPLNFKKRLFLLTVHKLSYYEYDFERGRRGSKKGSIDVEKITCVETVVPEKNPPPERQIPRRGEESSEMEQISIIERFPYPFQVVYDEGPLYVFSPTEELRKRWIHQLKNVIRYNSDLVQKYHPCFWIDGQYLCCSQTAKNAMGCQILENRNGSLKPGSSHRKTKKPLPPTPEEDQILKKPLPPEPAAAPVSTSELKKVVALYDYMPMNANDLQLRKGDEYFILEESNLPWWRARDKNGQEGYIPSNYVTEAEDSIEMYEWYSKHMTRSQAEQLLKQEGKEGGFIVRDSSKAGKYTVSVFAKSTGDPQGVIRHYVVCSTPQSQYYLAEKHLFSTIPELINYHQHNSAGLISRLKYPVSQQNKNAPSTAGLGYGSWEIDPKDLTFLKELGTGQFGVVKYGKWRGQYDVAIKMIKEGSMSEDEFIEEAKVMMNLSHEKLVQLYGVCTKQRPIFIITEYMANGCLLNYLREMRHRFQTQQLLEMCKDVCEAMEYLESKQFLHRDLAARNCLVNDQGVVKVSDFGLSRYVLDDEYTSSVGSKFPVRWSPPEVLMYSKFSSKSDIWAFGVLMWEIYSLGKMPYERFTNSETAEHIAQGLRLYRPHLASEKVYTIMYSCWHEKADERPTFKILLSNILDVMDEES
Chain of EGFR-WT (P00533 668-1210): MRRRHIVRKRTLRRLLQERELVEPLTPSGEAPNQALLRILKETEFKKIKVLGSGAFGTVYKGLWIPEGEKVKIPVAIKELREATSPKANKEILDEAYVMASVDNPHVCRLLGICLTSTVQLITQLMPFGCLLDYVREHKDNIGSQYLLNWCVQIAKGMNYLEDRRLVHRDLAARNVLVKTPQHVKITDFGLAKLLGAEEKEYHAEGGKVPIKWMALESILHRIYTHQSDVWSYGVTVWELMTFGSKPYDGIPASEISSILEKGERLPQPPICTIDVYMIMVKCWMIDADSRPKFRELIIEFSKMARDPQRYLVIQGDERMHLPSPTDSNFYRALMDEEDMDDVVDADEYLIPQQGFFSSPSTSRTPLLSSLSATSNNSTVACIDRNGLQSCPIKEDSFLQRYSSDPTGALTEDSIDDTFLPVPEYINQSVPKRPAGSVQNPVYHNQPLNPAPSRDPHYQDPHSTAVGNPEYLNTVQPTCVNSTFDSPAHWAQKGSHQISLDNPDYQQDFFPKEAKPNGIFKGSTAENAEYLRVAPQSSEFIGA

As to `C=CC(=O)Nc1cccc(Nc2nc(Nc3ccc4c(cnn4C)c3)ncc2F)c1` [Compound I-155], the IC50 in test [1], in test [2] (setting [4]) and in test [3] was less than 10 nM each time.

In the case of `C=CC(=O)Nc1cccc(Nc2nc(Nc3ccc(Cl)c(OC(C)CO)c3)ncc2F)c1` (centres unmarked) [Compound I-337, N-(3-(2-(4-chloro-3-(1-hydroxypropan-2-yloxy)phenylamino)-5-fluoropyrimidin-4-ylamino)phenyl)acrylamide], the IC50 in test [1] is 10 to 100 nM; in test [2] it was 10 to 100 nM; in test [3] it was less than 10 nM.

With `C=CC(=O)Nc1cccc(Nc2nc(Nc3ccc(OCCOCCNC(=O)OC(C)(C)C)c(F)c3)ncc2F)c1` [Compound I-356, tert-butyl 2-(2-(4-(4-(3-acrylamidophenylamino)-5-fluoropyrimidin-2-ylamino)-2-fluorophenoxy)ethoxy)ethylcarbamate], the figures for the IC50 in test [1], in test [2] and in test [3] were 10 to 100 nM, 100 to 1000 nM and less than 10 nM, respectively.

With `C=CC(=O)Nc1cccc(Nc2nc(Nc3cccc(OC(C)(C)CO)c3)ncc2F)c1` [Compound I-91, N-(3-(5-fluoro-2-(3-(1-hydroxy-2-methylpropan-2-yloxy)phenylamino)pyrimidin-4-ylamino)phenyl)acrylamide], the values for the IC50 in test [1], in test [2] and in test [3] were 10 to 100 nM, 10 to 100 nM and less than 10 nM, respectively.

In the case of `C=CC(=O)Nc1cccc(Nc2nc(Nc3cccc(OCCCS(C)(=O)=O)c3)ncc2F)c1` [Compound I-138, 4-(3-acrylamidophenylamino)-5-fluoro-2-(3-(3-(methylsulfonyl)propoxy)phenylamino)-pyrimidine], the IC50 in test [1] and in test [2] was 10 to 100 nM each time.

“N^1-(2-(2-(4-(4-(3-acrylamidophenylamino)-5-fluoropyrimidin-2-ylamino)-2-fluorophenoxy)ethoxy)ethyl)-N^5-(15-oxo-18-((3aR,4R,6aS)-2-oxohexahydro-1H-thieno[3,4-d]imidazol-4-yl)-4,7,10-trioxa-14-azaoctadecyl)glutaramide [Compound I-362]”: the results for the IC50 in test [1] and in test [3] were 10 to 100 nM and less than 10 nM, respectively.

With `C=CC(=O)Nc1cccc(Nc2nc(Nc3ccc(OC[C@@H]4C[C@@H](O)CN4)c(F)c3)ncc2F)c1` [Compound I-355], the IC50 in test [1] is 10 to 100 nM; in test [2], 10 to 100 nM; in test [3], less than 10 nM.

In the case of `C=CC(=O)Nc1cccc(Nc2nc(Nc3ccc(OCCN4CCCC4=O)nc3)ncc2F)c1` [Compound I-70, N-(3-(5-fluoro-2-(6-(2-(2-oxopyrrolidin-1-yl)ethoxy)pyridin-3-ylamino)pyrimidin-4-ylamino)phenyl)acrylamide], the IC50 was less than 10 nM in test [1], 10 to 100 nM in test [2] and less than 10 nM in test [3].

Take `C=CC(=O)N1CCc2ccc(Nc3nc(Nc4ccc(OCCOC)cc4)ncc3F)cc21` [Compound I-94, 1-(6-(5-fluoro-2-(4-(2-methoxyethoxy)phenylamino)pyrimidin-4-ylamino)indolin-1-yl)prop-2-en-1-one]: the results for the IC50 in test [1], in test [2] and in test [3] were 10 to 100 nM, 100 to 1000 nM and less than 10 nM, respectively.

On to `C=CC(=O)Nc1cccc(Nc2nc(Nc3ccc(OCC(C)(C)O)c(F)c3)ncc2F)c1` [Compound I-315, N-(3-(5-fluoro-2-(3-fluoro-4-(2-hydroxy-2-methylpropoxy)phenylamino)pyrimidin-4-ylamino)phenyl)acrylamide], for which the IC50 in test [1] and in test [2] was 10 to 100 nM in each case.

Take `C=CC(=O)Nc1cccc(Nc2nc(Nc3ccc(OC(C)CO)c(F)c3)ncc2F)c1` (centres unmarked) [Compound I-333, N-(3-(5-fluoro-2-(3-fluoro-4-(1-hydroxypropan-2-yloxy)phenylamino)pyrimidin-4-ylamino)phenyl)acrylamide]: the IC50 in test [1] was 10 to 100 nM; in test [2] it was 10 to 100 nM; in test [3], less than 10 nM.

Regarding `C=CC(=O)Nc1cccc(Nc2nc(Nc3ccc(O[C@@H]4CCOC4)nc3)ncc2F)c1` [Compound I-69, (R)—N-(3-(5-fluoro-2-(6-(tetrahydrofuran-3-yloxy)pyridin-3-ylamino)pyrimidin-4-ylamino)phenyl)acrylamide], the values for the IC50 in test [1], in test [2] and in test [3] were 10 to 100 nM, 10 to 100 nM and less than 10 nM, respectively.

For the compound `C=CC(=O)Nc1cccc(Nc2nc(Nc3cccc(OCC4CCCN(C)C4)c3)ncc2F)c1` (centres unmarked) [Compound I-76, N-(3-(5-fluoro-2-(3-((1-methylpiperidin-3-yl)methoxy)phenylamino)pyrimidin-4-ylamino)phenyl)-acrylamide], the IC50 in test [1], in test [2] (setting [4]) and in test [3] was less than 10 nM each time.

On to `C=CC(=O)Nc1cccc(Nc2nc(Nc3ccc(Cl)c(OCC(O)CO)c3)ncc2F)c1` (centres unmarked) [Compound I-353, N-(3-(2-(4-chloro-3-(2,3-dihydroxypropoxy)phenylamino)-5-fluoropyrimidin-4-ylamino)phenyl)acrylamide], for which the IC50 was 10 to 100 nM in test [1], 10 to 100 nM in test [2] and less than 10 nM in test [3].

In the case of `C=C(C)C(=O)Cc1ccc(Nc2nc(Nc3ccc(OCCOC)c(F)c3)ncc2F)cc1` [Compound I-329, 1-(4-(5-fluoro-2-(3-fluoro-4-(2-methoxyethoxy)phenylamino)pyrimidin-4-ylamino)phenyl)-3-methylbut-3-en-2-one], the IC50 was less than 10 nM in test [1], 10 to 100 nM in test [2] and less than 10 nM in test [3].

`C=CC(=O)Nc1cccc(Nc2nc(Nc3ccc(O[C@H]4CCOC4)nc3)ncc2F)c1` [Compound I-54]: the values for the IC50 in test [1], in test [2] and in test [3] were 10 to 100 nM, 10 to 100 nM and less than 10 nM, respectively.

Consider `C=CC(=O)Nc1cccc(Nc2nc(Nc3cccc(OCCCn4ccnc4)c3)ncc2F)c1` [Compound I-204, N-(3-(2-(3-(3-(1H-imidazol-1-yl)propoxy)phenylamino)-5-fluoropyrimidin-4-ylamino)phenyl)acrylamide], for which the IC50 in test [1] and in test [2] was 10 to 100 nM throughout.

For the compound `C=CC(=O)Nc1cccc(Nc2nc(Nc3cccc(OCCCNC(=O)CCCC(=O)NCCCOCCOCCOCCCNC(=O)CCCC[C@H]4SC[C@H]5NC(=O)N[C@H]54)c3)ncc2C)c1` [Compound I-215, N^1-(3-(3-(4-(3-acrylamidophenylamino)-5-methylpyrimidin-2-ylamino)phenoxy)propyl)-N^5-(15-oxo-19-((3aR,4R,6aS)-2-oxohexahydro-1H-thieno[3,4-d]imidazol-4-yl)-4,7,10-trioxa-14-azanonadecyl)glutaramide], the results for the IC50 in test [1], in test [2] and in test [3] were 10 to 100 nM, 10 to 100 nM and less than 10 nM, respectively.

With `C=C(C)C(=O)c1ccc(Nc2nc(Nc3ccc(OCCOC)c(F)c3)ncc2F)cc1` [Compound I-324, 1-(4-(5-fluoro-2-(3-fluoro-4-(2-methoxyethoxy)phenylamino)pyrimidin-4-ylamino)phenyl)-2-methylprop-2-en-1-one], the IC50 was less than 10 nM in test [1], 10 to 100 nM in test [2] and less than 10 nM in test [3].

In the case of `C=CC(=O)Nc1cccc(Nc2nc(Nc3ccc(Cl)c(OC(C)(C)CO)c3)ncc2F)c1` [Compound I-336, N-(3-(2-(4-chloro-3-(1-hydroxy-2-methylpropan-2-yloxy)phenylamino)-5-fluoropyrimidin-4-ylamino)phenyl)acrylamide], the IC50 in test [1] is 100 to 1000 nM; in test [2], 100 to 1000 nM; in test [3], less than 10 nM.

Regarding `C=CC(=O)N(C)Cc1ccc(Oc2nc(Nc3cccc(OCCN4CCCC4=O)c3)ncc2F)cc1` [Compound I-146, N-(4-(5-fluoro-2-(3-(2-(2-oxopyrrolidin-1-yl)ethoxy)phenylamino)pyrimidin-4-yloxy)benzyl)-N-methylacrylamide], the IC50 was 10 to 100 nM in test [1] and less than 10 nM in test [3].

With `C=CC(=O)N1CCOc2ccc(Nc3ncc(F)c(Nc4ccc(OCc5ccccn5)c(Cl)c4)n3)cc21` [Compound I-343, 1-(6-(4-(3-chloro-4-(pyridine-2-ylmethoxy)phenylamino)-5-fluoropyrimidin-2-ylamino)-2H-benzo[b][1,4]oxazin-4(3H)-yl)prop-2-en-1-one], the IC50 is 100 to 1000 nM in test [2] and 10 to 100 nM in test [3].

Turning to `C=CC(=O)Nc1cccc(Oc2nc(Nc3cccc(N4CCN(CCO)CC4)c3)ncc2F)c1` [Compound I-84, N-(3-(5-fluoro-2-(3-(4-(2-hydroxyethyl)piperazin-1-yl)phenylamino)pyrimidin-4-yloxy)phenyl)acrylamide], the IC50 in test [2] (setting [4]) and in test [3] was less than 10 nM in each case.

As for `C=CC(=O)Nc1cccc(Nc2nc(Nc3ccc(OCC(O)CO)cc3)ncc2F)c1` (centres unmarked) [Compound I-335, N-(3-(2-(4-(2,3-dihydroxypropoxy)phenylamino)-5-fluoropyrimidin-4-ylamino)phenyl)acrylamide], the IC50 in test [2] (setting [4]) and in test [3] was less than 10 nM throughout.

Regarding `C=CC(=O)Nc1cccc(Nc2nc(Nc3ccc(OCC(C)(C)O)cc3)ncc2F)c1` [Compound I-73, N-(3-(5-fluoro-2-(4-(2-hydroxy-2-methylpropoxy)phenylamino)pyrimidin-4-ylamino)phenyl)acrylamide], the IC50 in test [1] and in test [3] was less than 10 nM each time.

For `CC(C)=CC(=O)c1ccc(Nc2nc(Nc3ccccc3)ncc2F)cc1` [Compound I-206, 1-(4-(5-fluoro-2-(phenylamino)pyrimidin-4-ylamino)phenyl)-3-methylbut-2-en-1-one], the IC50 is 1000 to 10000 nM in test [2] (setting [4]) and greater than 10000 nM in test [3].
